Test results as given in patent publication US20030096237A1, “Determination of the ability of patients to respond to a tumor treatment” (priority 2000, published 2003).

Test system: melanoma cell lines
Assay: oligonucleotide array, expression of genes encoding tumor associated antigens
Type: cell-based, human
Settings: six melanoma cell lines, 48 hours, 100 U/ml IFN-α
Protocol: The cell lines CNCM I-2544 (375), CNCM I-2545 (D10), CNCM I-2546 (15), CNCM I-2547 (51), CNCM I-2548 (59) and CNCM I-2549 (67) were cultured for 48 hours in the presence (+) or absence (−) of 100 U/ml IFN-α. The expression patterns of genes encoding tyrosinase, tyrosinase related protein-2 , pmel-17 and mart-1, HLA restricted, tumor associated antigens are reported. Grey bars refer to IFN-α sensitive cell lines and black bars refer to IFN-α resistant lines (see Table 1). Data are presented as average difference of signal intensity between match and mismatch probesets.
Cultured melanoma cells were harvested by scraping and total cellular RNA was extracted. […]
The normalized average difference (nAD) between the signals of the perfect and of the mismatch probesets for each gene was used as the expression level of a given gene. […] Based on nAD, change factors related to IFN-α exposure were also calculated. […]
Total cellular RNA was extracted from the sensitive and resistant melanoma cell lines identified above, reverse transcribed and processed for hybridization to an oligonucleotide array (Hu6800FL, PN 900183) containing probe sets derived from 7000 full-length human genes. Expression levels for each gene were calculated as normalized average difference (nAD, see materials and methods). […]

IFN-α
expression of the genes encoding TAA (MART-1/Melan-A, pmel-17, TRP-2, tyrosinase): does not appear to influence
